Results on five substances are retold here after patent publication US20120016011A1, “RNA Interference Mediated Inhibition of Connective Tissue Growth Factor (CTGF) Gene Expression Using Short Interfering Nucleic Acid (siNA)” (Merck Sharp & Dohme Corp., priority 2009, published 2012).

[invAb] = inverted abasic unit; m = 2'-O-methyl; r = 2'-OH (RNA); f = 2'-fluoro

In one data set the test system is CTGF mRNA. Briefly: CTGF mRNA knockdown (Taqman RT-PCR) after siNA transfection of human NHLF cells. It counts as cell-based. The settings on record: for % KD Human: 10 nM siNA, 24 hrs, average of 3 experiments, vs non-targeting control; for % KD CTGF mRNA at 10 nM / IC50: mean ± S.D. Summed up:
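Normal human lung fibroblasts (5000 cells/well) were transfected 24 h after plating with 10 nM siNA complexed with RNAiMax and harvested 24 h later without a media change. CTGF mRNA was measured by TaqMan RT-qPCR on Cells-to-CT lysates, with β-actin and GAPDH assayed alongside. Knockdown was calculated by comparative Ct (ΔΔCt) against non-targeting control siNA.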
In general terms: Real-time PCR tracks product formation cycle by cycle.

In the next data set the test system is GAPDH mRNA. Briefly: GAPDH mRNA reduction (normalizer, check for toxicity) in siNA-transfected NHLF cells. It counts as cell-based. The settings on record: human NHLF cells, mean ± S.D. The method, then:
NHLF (Normal human lung fibroblasts; Lonza cat# CC-2512): Cells were cultured at 37° C. in the presence of 5% CO2 and grown in Fibroblast Basal Medium (Lonza cat# CC-3132) supplemented with 2% FBS and growth factors (provided with the kit) and 100 μg/mL of streptomycin and 100 U/mL penicillin.
Cells were plated in all wells of a tissue-culture treated, 96-well plate at a final count of 5000 cells/well in […], of the appropriate culture media. The cells were cultured for 24 hours after plating at 37° C. in the presence of 5% CO2.
After 24 hours, complexes containing siNA and RNAiMax were created as follows: A solution of RNAiMax diluted 33-fold in OPTI-MEM was prepared. In parallel, solutions of the siNAs for testing were prepared to a final concentration of 120 nM in OPTI-MEM. After incubation of RNAiMax/OPTI-MEM solution at room temperature for 5 min, an equal volume of the siNA solution and the RNAiMax solution were added together for each of the siNAs.
This solution was incubated at room temperature for 20 minutes. After incubation, 20 uL of the solution was added to each of the relevant wells. The final concentration of siNA in each well was 10 nM and the final volume of RNAiMax in each well was 0.3 ul.
The time of incubation with the RNAiMax-siNA complexes was 24 hours and there was no change in media between transfection and harvesting, unless otherwise indicated.
A series of probes and primers were used to detect the various mRNA transcripts of the genes of β-Actin (human cell line only), and of CTGF and GAPDH in mouse and human cell lines. All Taqman probes and primers for the experiments here-in described were supplied as pre-validated sets by Applied Biosystems, Inc. (see Table 3).
The assays were performed on an ABI 7900 instrument, according to the manufacturer's instructions. A TaqMan Gene Expression Master Mix (provided in the Cells-to-CT™, Applied Biosystems, Cat # 4399002) was used. The PCR reactions were carried out at 50° C. for 2 min, 95° C. for 20 min followed by 40 cycles at 95° C. for 15 secs and 60° C. for 1 min.
Additionally, only normalized data, which reflects the general health of the cell and quality of the RNA extraction, was examined. This was done by looking at the level of two different mRNAs in the treated cells, the first being the target mRNA and the second being the normalizer mRNA. This allowed for elimination of siNAs that might be potentially toxic to cells rather than solely knocking down the gene of interest. This was done by comparing the Ct for GAPDH in each well relative to the Ct for the entire plate.

As for “48047-DC: siNA duplex; sense SEQ ID NO: 59 B cGAGuAAuAuGccuGcuAu TTB; antisense SEQ ID NO: 60 AUAGcAGGcAuAuuAcucGUU (sense CGAGUAAUAUGCCUGCUAUTT; antisense AUAGCAGGCAUAUUACUCGUU; sense: DNA at AGT, 2'-fluoro at CU, [invAb] at 5' end, 3' end, backbone not given here; antisense: sugars from the 5' end rrrmfmmmfmfmffmfffmmm, backbone not given here)”, in the data set on CTGF mRNA, the “% KD Human” value amounted to 81 ± 3%, the “% KD CTGF mRNA at 10 nM” value amounted to 81 ± 3% and inhibition was half-maximal at 0.071 ± 0.03 nM (IC50). Besides, the “% Reduction GAPDH mRNA at 10 nM” value in the data set with GAPDH mRNA is on record as −5 ± 14%.

As for “48046-DC: siNA duplex; sense SEQ ID NO: 57 B cAcAGcAccAGAAuGuAuA TTB; antisense SEQ ID NO: 58 UAUAcAuucuGGuGcuGuGUU (sense CACAGCACCAGAAUGUAUATT; antisense UAUACAUUCUGGUGCUGUGUU; sense: DNA at AGT, 2'-fluoro at CU, [invAb] at 5' end, 3' end, backbone not given here; antisense: sugars from the 5' end rrrmfmffffmmfmffmfmmm, backbone not given here)”, in the data set with CTGF mRNA, the “% KD Human” value is listed as 85 ± 3%, the “% KD CTGF mRNA at 10 nM” value was 85 ± 3% and the IC50 (commonly the midpoint of a concentration-inhibition curve) came to 0.031 ± 0.011 nM. Besides, the “% Reduction GAPDH mRNA at 10 nM” value in the data set with GAPDH mRNA is on record as −53 ± 14%.

Consider “48048-DC: siNA duplex; sense SEQ ID NO: 61 B GAuAGcAucuuAuAcGAGu TTB; antisense SEQ ID NO: 62 ACUcGuAuAAGAuGcuAucUU (sense GAUAGCAUCUUAUACGAGUTT; antisense ACUCGUAUAAGAUGCUAUCUU; sense: DNA at AGT, 2'-fluoro at CU, [invAb] at 5' end, 3' end, backbone not given here; antisense: sugars from the 5' end rrrfmfmfmmmmfmffmffmm, backbone not given here)”, for which, in the data set on CTGF mRNA, the “% KD Human” value is recorded as 80 ± 3%, the “% KD CTGF mRNA at 10 nM” value stood at 80 ± 3% and 0.049 ± 0.016 nM corresponded to half-maximal inhibition (IC50). Moreover, the “% Reduction GAPDH mRNA at 10 nM” value with GAPDH mRNA is given as −2 ± 10%.

Regarding “48042-DC: siNA duplex; sense SEQ ID NO: 49 B GAcAuuAAcucAuuAGAcu TTB; antisense SEQ ID NO: 50 AGUcuAAuGAGuuAAuGucUU (sense GACAUUAACUCAUUAGACUTT; antisense AGUCUAAUGAGUUAAUGUCUU; sense: DNA at AGT, 2'-fluoro at CU, [invAb] at 5' end, 3' end, backbone not given here; antisense: sugars from the 5' end rrrffmmfmmmffmmfmffmm, backbone not given here)”, in the data set with CTGF mRNA, the “% KD Human” value is 90 ± 1%, the “% KD CTGF mRNA at 10 nM” value worked out at 90 ± 1% and it took 0.095 ± 0.022 nM to reach half-maximal inhibition (IC50). Also, in the data set with GAPDH mRNA, the “% Reduction GAPDH mRNA at 10 nM” value was −43 ± 32%.

Take “48055-DC: siNA duplex; sense SEQ ID NO: 75 B cAAGuuAuuuAAAucuGuu TTB; antisense SEQ ID NO: 76 AACAGAuuuAAAuAAcuuGUU (sense CAAGUUAUUUAAAUCUGUUTT; antisense AACAGAUUUAAAUAACUUGUU; sense: DNA at AGT, 2'-fluoro at CU, [invAb] at 5' end, 3' end, backbone not given here; antisense: sugars from the 5' end rrrmmmfffmmmfmmfffmmm, backbone not given here)”: in the data set with CTGF mRNA, the “% KD Human” value is listed as 88 ± 0%, the “% KD CTGF mRNA at 10 nM” value is reported as 88 ± 0% and the 50% inhibitory concentration (IC50) is 0.11 ± 0.038 nM. For the same substance, the “% Reduction GAPDH mRNA at 10 nM” value in the data set on GAPDH mRNA was −18 ± 4%.
